Bridge positions count the residues as written; N and C are the ends. Peptide text beside a SMILES is read from it.
Legend:
Rat α2β2 nAChR = target: T1, Rat α2β2 nAChR (Rattus norvegicus, UniProt P12389+P12390); test: cell-based
T1 construct: expressed in transfected cells; host or cells: Xenopus oocytes injected with cRNA

Rat α2β4 nAChR = target: T2, Rat α2β4 nAChR (Rattus norvegicus, UniProt P12389+P12392); test: cell-based
T2 construct: expressed in transfected cells; host or cells: Xenopus oocytes injected with cRNA
T2 sequence (P12389 28-511 limits assumed): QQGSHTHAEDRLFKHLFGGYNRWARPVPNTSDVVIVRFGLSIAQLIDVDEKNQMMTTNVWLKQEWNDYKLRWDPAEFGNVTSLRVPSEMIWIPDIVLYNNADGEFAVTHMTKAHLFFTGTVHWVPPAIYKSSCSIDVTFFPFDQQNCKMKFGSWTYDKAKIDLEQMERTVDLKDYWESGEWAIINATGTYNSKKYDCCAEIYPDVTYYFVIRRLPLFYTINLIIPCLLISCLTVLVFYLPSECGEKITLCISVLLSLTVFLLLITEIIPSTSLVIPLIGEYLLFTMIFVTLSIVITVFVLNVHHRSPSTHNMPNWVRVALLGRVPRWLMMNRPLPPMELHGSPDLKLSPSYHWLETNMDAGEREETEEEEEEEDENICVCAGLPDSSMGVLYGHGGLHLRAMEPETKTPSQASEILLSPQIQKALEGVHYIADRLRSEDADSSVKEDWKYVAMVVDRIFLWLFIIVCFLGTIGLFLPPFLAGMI
T2 sequence (P12392 21-495 limits assumed): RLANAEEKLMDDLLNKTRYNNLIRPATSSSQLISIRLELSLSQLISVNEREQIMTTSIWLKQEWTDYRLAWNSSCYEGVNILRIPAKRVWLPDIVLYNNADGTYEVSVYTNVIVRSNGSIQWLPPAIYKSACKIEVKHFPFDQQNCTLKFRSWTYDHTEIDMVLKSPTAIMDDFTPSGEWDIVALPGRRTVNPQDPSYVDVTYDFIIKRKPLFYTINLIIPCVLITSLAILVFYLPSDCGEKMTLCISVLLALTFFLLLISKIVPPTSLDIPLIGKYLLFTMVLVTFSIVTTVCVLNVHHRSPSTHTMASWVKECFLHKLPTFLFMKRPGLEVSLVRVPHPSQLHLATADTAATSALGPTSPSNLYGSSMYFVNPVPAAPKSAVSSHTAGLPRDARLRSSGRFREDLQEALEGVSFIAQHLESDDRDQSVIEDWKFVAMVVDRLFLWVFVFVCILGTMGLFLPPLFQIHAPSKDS

Rat α3β2 nAChR = target: T3, Rat α3β2 nAChR (Rattus norvegicus, UniProt P04757+P12390); test: cell-based
T3 construct: expressed in transfected cells; host or cells: Xenopus oocytes injected with cRNA
T3 sequence (P04757 26-499 limits assumed): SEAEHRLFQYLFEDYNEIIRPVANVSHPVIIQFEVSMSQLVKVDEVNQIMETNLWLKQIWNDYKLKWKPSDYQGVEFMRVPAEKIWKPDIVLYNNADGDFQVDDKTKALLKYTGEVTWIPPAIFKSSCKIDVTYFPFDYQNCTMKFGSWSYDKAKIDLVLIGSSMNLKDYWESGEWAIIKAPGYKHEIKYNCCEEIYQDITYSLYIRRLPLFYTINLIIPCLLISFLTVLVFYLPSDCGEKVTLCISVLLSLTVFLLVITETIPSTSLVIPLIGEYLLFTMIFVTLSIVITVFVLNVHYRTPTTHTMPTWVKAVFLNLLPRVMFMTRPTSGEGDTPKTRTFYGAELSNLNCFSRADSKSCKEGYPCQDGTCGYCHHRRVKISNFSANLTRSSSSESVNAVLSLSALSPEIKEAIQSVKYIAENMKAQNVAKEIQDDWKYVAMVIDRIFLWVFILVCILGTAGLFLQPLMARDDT
T3 sequence (P12390 25-500 limits assumed): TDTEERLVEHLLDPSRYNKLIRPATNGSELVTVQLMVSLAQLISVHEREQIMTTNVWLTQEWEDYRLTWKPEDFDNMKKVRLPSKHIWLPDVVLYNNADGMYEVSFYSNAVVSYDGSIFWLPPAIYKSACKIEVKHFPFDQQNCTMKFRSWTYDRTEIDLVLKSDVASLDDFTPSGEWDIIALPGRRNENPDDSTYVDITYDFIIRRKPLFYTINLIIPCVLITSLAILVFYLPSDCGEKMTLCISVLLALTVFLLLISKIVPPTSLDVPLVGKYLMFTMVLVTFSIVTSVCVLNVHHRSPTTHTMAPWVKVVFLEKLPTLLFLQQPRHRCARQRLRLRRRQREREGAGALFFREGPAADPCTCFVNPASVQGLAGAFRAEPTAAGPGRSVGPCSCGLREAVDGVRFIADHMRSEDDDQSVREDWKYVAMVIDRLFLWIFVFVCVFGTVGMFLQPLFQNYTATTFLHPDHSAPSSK

Rat α3β4 nAChR = target: T4, Rat α3β4 nAChR (Rattus norvegicus, UniProt P04757+P12392); test: cell-based
T4 construct: expressed in transfected cells; host or cells: Xenopus oocytes injected with cRNA
T4 sequence (P04757 26-499 limits assumed): as the sequence (P04757 26-499 limits assumed) above
T4 sequence (P12392 21-495 limits assumed): as the sequence (P12392 21-495 limits assumed) above

Rat α4β2 nAChR = target: T5, Rat α4β2 nAChR (Rattus norvegicus, UniProt P09483+P12390); test: cell-based
T5 construct: expressed in transfected cells; host or cells: Xenopus oocytes injected with cRNA
T5 sequence (P09483 31-630 limits assumed): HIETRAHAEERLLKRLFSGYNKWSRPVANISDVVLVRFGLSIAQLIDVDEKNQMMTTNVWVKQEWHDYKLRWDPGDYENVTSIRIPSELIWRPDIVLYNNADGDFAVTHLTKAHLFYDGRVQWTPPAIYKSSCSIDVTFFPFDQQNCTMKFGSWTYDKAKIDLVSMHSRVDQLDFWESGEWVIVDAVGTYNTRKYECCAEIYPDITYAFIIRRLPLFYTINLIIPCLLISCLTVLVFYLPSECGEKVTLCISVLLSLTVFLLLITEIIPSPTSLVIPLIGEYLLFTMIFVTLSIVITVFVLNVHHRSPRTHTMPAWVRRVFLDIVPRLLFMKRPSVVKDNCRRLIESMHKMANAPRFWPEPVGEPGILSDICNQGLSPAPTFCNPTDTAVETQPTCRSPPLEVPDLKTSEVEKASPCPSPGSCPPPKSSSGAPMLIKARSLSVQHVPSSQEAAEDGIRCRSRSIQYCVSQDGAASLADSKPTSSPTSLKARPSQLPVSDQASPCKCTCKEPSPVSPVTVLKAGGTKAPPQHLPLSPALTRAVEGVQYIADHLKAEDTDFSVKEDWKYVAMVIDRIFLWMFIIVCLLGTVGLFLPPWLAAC
T5 sequence (P12390 25-500 limits assumed): as the sequence (P12390 25-500 limits assumed) above

Rat α4β4 nAChR = target: T6, Rat α4β4 nAChR (Rattus norvegicus, UniProt P09483+P12392); test: cell-based
T6 construct: expressed in transfected cells; host or cells: Xenopus oocytes injected with cRNA
T6 sequence (P09483 31-630 limits assumed): as the sequence (P09483 31-630 limits assumed) above
T6 sequence (P12392 21-495 limits assumed): as the sequence (P12392 21-495 limits assumed) above

Rat α6/α3β2β3 nAChR = target: T7, Rat α6/α3β2β3 nAChR (Rattus norvegicus, UniProt P04757+P12390+P12391+P43143); test: cell-based
T7 construct: expressed in transfected cells; host or cells: Xenopus oocytes injected with cRNA

Rat α6/α3β4 nAChR = target: T8, Rat α6/α3β4 nAChR (Rattus norvegicus, UniProt P04757+P12392+P43143); test: cell-based
T8 construct: expressed in transfected cells; host or cells: Xenopus oocytes injected with cRNA
T8 sequence (P43143+P04757 fused with the stated changes): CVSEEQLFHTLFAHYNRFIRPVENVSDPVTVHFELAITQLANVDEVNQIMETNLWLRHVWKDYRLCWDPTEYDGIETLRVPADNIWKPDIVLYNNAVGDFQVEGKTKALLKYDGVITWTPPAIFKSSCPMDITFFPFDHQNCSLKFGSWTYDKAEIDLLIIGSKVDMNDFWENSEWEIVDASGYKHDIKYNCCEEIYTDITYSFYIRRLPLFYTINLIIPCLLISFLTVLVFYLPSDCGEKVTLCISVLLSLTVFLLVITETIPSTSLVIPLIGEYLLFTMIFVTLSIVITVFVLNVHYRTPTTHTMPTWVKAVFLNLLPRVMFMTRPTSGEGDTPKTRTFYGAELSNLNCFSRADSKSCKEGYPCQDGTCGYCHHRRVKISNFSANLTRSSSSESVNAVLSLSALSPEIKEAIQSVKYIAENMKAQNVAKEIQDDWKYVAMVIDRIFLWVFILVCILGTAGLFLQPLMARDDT
T8 sequence (P12392 21-495): as the sequence (P12392 21-495 limits assumed) above

Rat α7 nAChR = target: T9, Rat α7 nAChR (Rattus norvegicus, UniProt Q05941); test: cell-based
T9 construct: expressed in transfected cells; host or cells: Xenopus oocytes injected with cRNA
T9 sequence (Q05941 23-502 limits assumed): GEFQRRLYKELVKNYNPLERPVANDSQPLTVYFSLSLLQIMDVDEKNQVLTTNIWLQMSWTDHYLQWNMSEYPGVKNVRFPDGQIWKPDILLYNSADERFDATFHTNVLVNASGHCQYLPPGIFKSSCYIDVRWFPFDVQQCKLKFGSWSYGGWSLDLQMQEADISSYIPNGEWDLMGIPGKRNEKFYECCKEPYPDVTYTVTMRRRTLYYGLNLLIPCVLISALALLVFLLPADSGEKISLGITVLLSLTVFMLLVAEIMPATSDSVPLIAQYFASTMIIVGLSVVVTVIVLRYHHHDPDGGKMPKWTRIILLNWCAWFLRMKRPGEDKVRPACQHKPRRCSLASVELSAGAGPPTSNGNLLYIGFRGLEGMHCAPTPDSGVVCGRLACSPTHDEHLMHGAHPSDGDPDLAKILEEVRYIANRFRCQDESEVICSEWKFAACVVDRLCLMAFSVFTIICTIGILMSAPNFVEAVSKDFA

Rat α9α10 nAChR = target: T10, Rat α9α10 nAChR (Rattus norvegicus, UniProt P43144+Q9JLB5); test: cell-based
T10 construct: expressed in transfected cells; host or cells: Xenopus oocytes injected with cRNA
T10 sequence (P43144 26-479 limits assumed): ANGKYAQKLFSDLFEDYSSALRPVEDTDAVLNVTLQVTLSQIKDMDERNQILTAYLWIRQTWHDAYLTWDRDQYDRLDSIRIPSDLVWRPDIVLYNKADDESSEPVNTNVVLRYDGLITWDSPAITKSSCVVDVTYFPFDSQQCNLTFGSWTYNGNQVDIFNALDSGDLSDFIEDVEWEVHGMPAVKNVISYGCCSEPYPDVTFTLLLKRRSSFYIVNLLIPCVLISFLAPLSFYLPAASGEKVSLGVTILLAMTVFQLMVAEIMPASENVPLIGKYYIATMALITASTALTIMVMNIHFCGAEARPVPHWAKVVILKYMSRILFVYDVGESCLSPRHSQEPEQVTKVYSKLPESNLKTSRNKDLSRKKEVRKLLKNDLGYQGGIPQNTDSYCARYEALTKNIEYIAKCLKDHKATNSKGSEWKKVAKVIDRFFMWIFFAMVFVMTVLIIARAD
T10 sequence (Q9JLB5 25-447 limits assumed): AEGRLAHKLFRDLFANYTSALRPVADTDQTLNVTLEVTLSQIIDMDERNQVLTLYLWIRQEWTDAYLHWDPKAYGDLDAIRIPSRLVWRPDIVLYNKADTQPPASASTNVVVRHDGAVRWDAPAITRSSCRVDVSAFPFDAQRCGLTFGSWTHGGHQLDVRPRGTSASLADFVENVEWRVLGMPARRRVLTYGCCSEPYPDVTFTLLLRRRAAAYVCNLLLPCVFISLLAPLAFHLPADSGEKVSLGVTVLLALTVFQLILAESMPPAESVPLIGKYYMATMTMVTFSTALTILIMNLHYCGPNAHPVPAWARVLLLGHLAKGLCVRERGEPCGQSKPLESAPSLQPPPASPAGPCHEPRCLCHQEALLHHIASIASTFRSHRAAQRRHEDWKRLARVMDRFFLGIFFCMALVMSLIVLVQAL

α9α10 nAChR [1] = target: T11, α9α10 nAChR (Rattus norvegicus, UniProt P43144+Q9JLB5); format: cell-based
T11 construct: expressed in transfected cells; host or cells: Xenopus oocytes injected with cRNA
T11 sequence (P43144 26-479 limits assumed): as the sequence (P43144 26-479 limits assumed) above
T11 sequence (Q9JLB5 25-447 limits assumed): as the sequence (Q9JLB5 25-447 limits assumed) above

α9α10 nAChR [2] = conditions: cited from earlier work
α6/α3β2β3 nAChR = conditions: cited from earlier work
α3β4 nAChR = conditions: cited from earlier work
GABAB receptors = conditions: cited from earlier work

T1 sequence (P12389 28-511 limits assumed): as the sequence (P12389 28-511 limits assumed) above
T1 sequence (P12390 25-500 limits assumed): as the sequence (P12390 25-500 limits assumed) above

Molecule	IC50 (Rat α2β2 nAChR) [µM]	IC50 (Rat α2β4 nAChR) [µM]	IC50 (Rat α3β2 nAChR) [µM]	IC50 (Rat α3β4 nAChR) [µM]	IC50 (Rat α4β2 nAChR) [µM]	IC50 (Rat α4β4 nAChR) [µM]	IC50 (Rat α6/α3β2β3 nAChR) [µM]	IC50 (Rat α6/α3β4 nAChR) [µM]	IC50 (Rat α7 nAChR) [µM]	IC50 (Rat α9α10 nAChR) [µM]	activity at nAChRs (in words) (Rat α9α10 nAChR)	block of α9α10 current (Rat α9α10 nAChR)	block in the presence of Ba++ (in words) (α9α10 nAChR [1])	IC50 (α9α10 nAChR [2]) [µM]	IC50 (α6/α3β2β3 nAChR) [µM]	IC50 (α3β4 nAChR) [µM]	activity at GABAB receptors (GABAB receptors)
CC(C)C[C@@H]1NC(=O)[C@@H](NC(=O)[C@H](CCCNC(=N)N)NC(=O)[C@@H](N)C(C)C)CSSC[C@@H](C(=O)N[C@H]2CSSC[C@@H](C(=O)N[C@H](C(=O)N[C@@H](Cc3ccc(O)cc3)C(=O)N[C@@H](Cc3ccc(O)cc3)C(=O)N[C@H](C(=O)N[C@@H](CCC(N)=O)C(=O)N[C@@H](CO)C(=O)N[C@@H](CCCNC(=N)N)C(=O)N[C@@H](CCC(=O)O)C(=O)O)[C@@H](C)O)C(C)C)NC(=O)[C@H](CCCNC(=N)N)NC(=O)[C@H](CO)NC(=O)[C@H](Cc3c[nH]cn3)NC(=O)[C@H](CCCNC(=N)N)NC(=O)[C@H](C)NC(=O)[C@H](Cc3ccccc3)NC(=O)[C@H](CO)NC(=O)[C@@H]3CCCN3C(=O)CNC(=O)[C@H](CCCCN)NC(=O)[C@H](CCC(N)=O)NC2=O)NC(=O)[C@@H]2CCCN2C(=O)[C@@H]2CCCN2C(=O)[C@H](CCCNC(=N)N)NC(=O)[C@H](Cc2ccccc2)NC(=O)[C@H](CC(C)C)NC(=O)[C@H](CCCCN)NC(=O)[C@H](CC(N)=O)NC(=O)[C@@H]2CCCN2C(=O)[C@H](CCC(N)=O)NC(=O)[C@H](C)NC(=O)CNC(=O)[C@H](CO)NC(=O)[C@H](CCCCN)NC(=O)[C@H](CCC(=O)O)NC1=O [αB-VxXXIVA [1], [2]] (H-VRCLEKSGAQPNKLFRPPCCQKGPSFARHSRCVYYTQSRE-OH; disulfide 3-19, 20-32)	23.4	> 30	> 30	> 30	> 30	> 30	12.2	30.1	> 30	1.2	–	–	–	–	–	–	–
CC(C)C[C@@H]1NC(=O)[C@@H](NC(=O)[C@H](CCCNC(=N)N)NC(=O)[C@@H](N)C(C)C)CSSC[C@@H]2NC(=O)[C@H](CSSC[C@@H](C(=O)N[C@H](C(=O)N[C@@H](Cc3ccc(O)cc3)C(=O)N[C@@H](Cc3ccc(O)cc3)C(=O)N[C@H](C(=O)N[C@@H](CCC(N)=O)C(=O)N[C@@H](CO)C(=O)N[C@@H](CCCNC(=N)N)C(=O)N[C@@H](CCC(=O)O)C(=O)O)[C@@H](C)O)C(C)C)NC(=O)[C@H](CCCNC(=N)N)NC(=O)[C@H](CO)NC(=O)[C@H](Cc3c[nH]cn3)NC(=O)[C@H](CCCNC(=N)N)NC(=O)[C@H](C)NC(=O)[C@H](Cc3ccccc3)NC(=O)[C@H](CO)NC(=O)[C@@H]3CCCN3C(=O)CNC(=O)[C@H](CCCCN)NC(=O)[C@H](CCC(N)=O)NC2=O)NC(=O)[C@@H]2CCCN2C(=O)[C@@H]2CCCN2C(=O)[C@H](CCCNC(=N)N)NC(=O)[C@H](Cc2ccccc2)NC(=O)[C@H](CC(C)C)NC(=O)[C@H](CCCCN)NC(=O)[C@H](CC(N)=O)NC(=O)[C@@H]2CCCN2C(=O)[C@H](CCC(N)=O)NC(=O)[C@H](C)NC(=O)CNC(=O)[C@H](CO)NC(=O)[C@H](CCCCN)NC(=O)[C@H](CCC(=O)O)NC1=O [αB-VxXXIVA [1], [3]] (H-VRCLEKSGAQPNKLFRPPCCQKGPSFARHSRCVYYTQSRE-OH; disulfide 3-20, 19-32)	> 30	> 30	> 30	> 30	> 30	> 30	> 30	> 30	> 30	3.9	–	–	–	–	–	–	–
CC(C)C[C@@H]1NC(=O)[C@@H](NC(=O)[C@H](CCCNC(=N)N)NC(=O)[C@@H](N)C(C)C)CSSC[C@@H](C(=O)N[C@H](C(=O)N[C@@H](Cc2ccc(O)cc2)C(=O)N[C@@H](Cc2ccc(O)cc2)C(=O)N[C@H](C(=O)N[C@@H](CCC(N)=O)C(=O)N[C@@H](CO)C(=O)N[C@@H](CCCNC(=N)N)C(=O)N[C@@H](CCC(=O)O)C(=O)O)[C@@H](C)O)C(C)C)NC(=O)[C@H](CCCNC(=N)N)NC(=O)[C@H](CO)NC(=O)[C@H](Cc2c[nH]cn2)NC(=O)[C@H](CCCNC(=N)N)NC(=O)[C@H](C)NC(=O)[C@H](Cc2ccccc2)NC(=O)[C@H](CO)NC(=O)[C@@H]2CCCN2C(=O)CNC(=O)[C@H](CCCCN)NC(=O)[C@H](CCC(N)=O)NC(=O)[C@@H]2CSSC[C@H](NC(=O)[C@@H]3CCCN3C(=O)[C@@H]3CCCN3C(=O)[C@H](CCCNC(=N)N)NC(=O)[C@H](Cc3ccccc3)NC(=O)[C@H](CC(C)C)NC(=O)[C@H](CCCCN)NC(=O)[C@H](CC(N)=O)NC(=O)[C@@H]3CCCN3C(=O)[C@H](CCC(N)=O)NC(=O)[C@H](C)NC(=O)CNC(=O)[C@H](CO)NC(=O)[C@H](CCCCN)NC(=O)[C@H](CCC(=O)O)NC1=O)C(=O)N2 [αB-VxXXIVA [1], [4]] (H-VRCLEKSGAQPNKLFRPPCCQKGPSFARHSRCVYYTQSRE-OH; disulfide 3-32, 19-20)	–	–	–	> 30	> 30	–	–	–	> 30	> 30	inactive	less than 15%	did not potently block	–	–	–	–
α-Conotoxin Vc1.1	–	–	–	–	–	–	–	–	–	–	–	–	–	0.005	0.14	4.2	activate GABAB receptors
